Reference: patent US12473304B2, “Heterocyclic PAD4 inhibitors” (BRISTOL-MYERS SQUIBB COMPANY, priority 2020, dated 2025)

These compounds were tested against human PAD4 (hPAD4) (Homo sapiens (Human), UniProt Q9UM07) (assay: RFMS Human PAD4 Functional Assay 1). Conditions: RFMS assay 1; 5 nM hPAD4, 250 μM BAEE substrate, 50 μM calcium, 37° C.
Format: biochemical
In short: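 Recombinant hPAD4 (5 nM) was preincubated with compound (top 50 μM, 0.5% DMSO) for 30 min at 37 °C, then reacted with 250 μM BAEE for 90 min at 37 °C in pH 7.5 HEPES buffer with 50 μM calcium and 5 μM TPEN. Product was derivatized with phenyl glyoxal and quantified by RapidFire MS.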

Chain of human PAD4 (hPAD4) (Q9UM07 whole entry): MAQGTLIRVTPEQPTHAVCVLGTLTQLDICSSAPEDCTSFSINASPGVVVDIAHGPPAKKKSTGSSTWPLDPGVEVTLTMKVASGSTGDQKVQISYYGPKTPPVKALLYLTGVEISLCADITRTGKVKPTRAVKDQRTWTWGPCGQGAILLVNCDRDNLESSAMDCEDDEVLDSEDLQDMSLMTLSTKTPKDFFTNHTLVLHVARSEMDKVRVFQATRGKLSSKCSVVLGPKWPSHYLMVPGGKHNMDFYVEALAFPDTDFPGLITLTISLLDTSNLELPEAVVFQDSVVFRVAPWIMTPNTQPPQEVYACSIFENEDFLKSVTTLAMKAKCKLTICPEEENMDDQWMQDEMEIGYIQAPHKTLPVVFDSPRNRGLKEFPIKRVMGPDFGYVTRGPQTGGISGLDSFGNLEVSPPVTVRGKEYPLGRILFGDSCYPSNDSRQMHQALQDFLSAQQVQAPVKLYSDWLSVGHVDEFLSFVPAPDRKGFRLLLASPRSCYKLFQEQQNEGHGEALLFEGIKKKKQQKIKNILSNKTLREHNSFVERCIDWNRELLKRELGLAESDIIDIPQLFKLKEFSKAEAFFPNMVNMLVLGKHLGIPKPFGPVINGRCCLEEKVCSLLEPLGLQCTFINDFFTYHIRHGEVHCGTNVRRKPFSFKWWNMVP

Compound | IC50 [nM]
Cc1c(-c2cc3cccc(C4CN(C(=O)[C@H]5CCC[C@@H](O)C5)C4)c3n2CC2CC2)nn2cc(C(=O)N3C[C@H](N)C[C@@H](F)C3)ccc12 [Example 533, ((3R,5R)-3-Amino-5-fluoropiperidin-1-yl)(2-(1-(cyclopropylmethyl)-7-(1-((1S,3R)-3-hydroxycyclohexane-1-carbonyl)azetidin-3-yl)-1H-indol-2-yl)-3-methylpyrazolo[1,5-a]pyridin-6-yl)methanone] | 520
Cc1c(-c2cc3cccc(C4CN(C(=O)[C@H]5CCC[C@@H](O)C5)C4)c3n2CC2CC2)nn2cc(C(=O)N3CCC[C@@H](N)C3)ccc12 [Example 534, ((R)-3-Aminopiperidin-1-yl)(2-(1-(cyclopropylmethyl)-7-(1-((1S,3R)-3-hydroxycyclohexane-1-carbonyl)azetidin-3-yl)-1H-indol-2-yl)-3-methylpyrazolo[1,5-a]pyridin-6-yl)methanone] | 440
COC(C)(C)C(=O)N1CC(c2cccc3cc(-c4nn5cc(C(=O)N6CCC[C@@H](N)C6)ccc5c4C)n(CC4CC4)c23)C1 [Example 536, (R)-1-(3-(2-(6-(3-Aminopiperidine-1-carbonyl)-3-methylpyrazolo[1,5-a]pyridin-2-yl)-1-(cyclopropylmethyl)-1H-indol-7-yl)azetidin-1-yl)-2-methoxy-2-methylpropan-1-one] | 2520
Cc1c(-c2cc3cccc(C4CN(C(=O)[C@H]5CC[C@H](O)CC5)C4)c3n2CC2CC2)nn2cc(C(=O)N3C[C@H](N)C[C@@H](F)C3)ccc12 [Example 537, ((3R,5R)-3-Amino-5-fluoropiperidin-1-yl)(2-(1-(cyclopropylmethyl)-7-(1-((1r,4r)-4-hydroxycyclohexane-1-carbonyl)azetidin-3-yl)-1H-indol-2-yl)-3-methylpyrazolo[1,5-a]pyridin-6-yl)methanone] | 70
Cc1c(-c2cc3cccc(C4CN(C(=O)[C@H]5CC[C@@H](O)CC5)C4)c3n2CC2CC2)nn2cc(C(=O)N3C[C@H](N)C[C@@H](F)C3)ccc12 [Example 538, ((3R,5R)-3-Amino-5-fluoropiperidin-1-yl)(2-(1-(cyclopropylmethyl)-7-(1-((1s,4s)-4-hydroxycyclohexane-1-carbonyl)azetidin-3-yl)-1H-indol-2-yl)-3-methylpyrazolo[1,5-a]pyridin-6-yl)methanone] | 40
Cc1c(-c2cc3cccc(C4CN(C(=O)[C@H]5CC[C@@H](O)CC5)C4)c3n2CC2CC2)nn2cc(C(=O)N3CCC[C@@H](N)C3)ccc12 [Example 539, ((R)-3-Aminopiperidin-1-yl)(2-(1-(cyclopropylmethyl)-7-(1-((1s,4s)-4-hydroxycyclohexane-1-carbonyl)azetidin-3-yl)-1H-indol-2-yl)-3-methylpyrazolo[1,5-a]pyridin-6-yl)methanone] | 130
CO[C@H](C)C(=O)N1CC(c2cccc3cc(-c4nn5cc(C(=O)N6C[C@H](N)C[C@@H](F)C6)ccc5c4C)n(CC4CC4)c23)C1 [Example 540, (R)-1-(3-(2-(6-((3R,5R)-3-Amino-5-fluoropiperidine-1-carbonyl)-3-methylpyrazolo[1,5-a]pyridin-2-yl)-1-(cyclopropylmethyl)-1H-indol-7-yl)azetidin-1-yl)-2-methoxypropan-1-one] | 1100
CO[C@H](C)C(=O)N1CC(c2cccc3cc(-c4nn5cc(C(=O)N6CCC[C@@H](N)C6)ccc5c4C)n(CC4CC4)c23)C1 [Example 541, (R)-1-(3-(2-(6-((R)-3-Aminopiperidine-1-carbonyl)-3-methylpyrazolo[1,5-a]pyridin-2-yl)-1-(cyclopropylmethyl)-1H-indol-7-yl)azetidin-1-yl)-2-methoxypropan-1-one] | 2530
CO[C@@H](C)C(=O)N1CC(c2cccc3cc(-c4nn5cc(C(=O)N6C[C@H](N)C[C@@H](F)C6)ccc5c4C)n(CC4CC4)c23)C1 [Example 542, (S)-1-(3-(2-(6-((3R,5R)-3-Amino-5-fluoropiperidine-1-carbonyl)-3-methylpyrazolo[1,5-a]pyridin-2-yl)-1-(cyclopropylmethyl)-1H-indol-7-yl)azetidin-1-yl)-2-methoxypropan-1-one] | 580
CO[C@@H](C)C(=O)N1CC(c2cccc3cc(-c4nn5cc(C(=O)N6CCC[C@@H](N)C6)ccc5c4C)n(CC4CC4)c23)C1 [Example 543, (S)-1-(3-(2-(6-((R)-3-aminopiperidine-1-carbonyl)-3-methylpyrazolo[1,5-a]pyridin-2-yl)-1-(cyclopropylmethyl)-1H-indol-7-yl)azetidin-1-yl)-2-methoxypropan-1-one] | 630
COCC(=O)N1CC(c2cccc3cc(-c4nn5cc(C(=O)N6C[C@H](N)C[C@@H](F)C6)ccc5c4C)n(CC4CC4)c23)C1 [Example 547, 1-(3-(2-(6-((3R,5R)-3-Amino-5-fluoropiperidine-1-carbonyl)-3-methylpyrazolo[1,5-a]pyridin-2-yl)-1-(cyclopropylmethyl)-1H-indol-7-yl)azetidin-1-yl)-2-methoxyethan-1-one] | 490
CC(=O)N1CC(c2cccc3cc(-c4nn5cc(C(=O)N6C[C@H](N)C[C@@H](F)C6)ccc5c4C)n(CC4CC4)c23)C1 [Example 548, 1-(3-(2-(6-((3R,5R)-3-Amino-5-fluoropiperidine-1-carbonyl)-3-methylpyrazolo[1,5-a]pyridin-2-yl)-1-(cyclopropylmethyl)-1H-indol-7-yl)azetidin-1-yl)ethan-1-one] | 170
CC(=O)N1CC(c2cccc3cc(-c4nn5cc(C(=O)N6CC7CCC6[C@@H]7N)ccc5c4C)n(CC4CC4)c23)C1 (stereo partly drawn) [Example 549, 1-(3-(2-(6-((7R)-7-Amino-2-azabicyclo[2.2.1]heptane-2-carbonyl)-3-methylpyrazolo[1,5-a]pyridin-2-yl)-1-(cyclopropylmethyl)-1H-indol-7-yl)azetidin-1-yl)ethan-1-one] | 10

Next, values leading:

IC50 [nM] | Compound
560 | COCC(=O)N1CC(c2cccc3cc(-c4nn5cc(C(=O)N6CCC[C@@H](N)C6)ccc5c4C)n(CC4CC4)c23)C1 [Example 546, (R)-1-(3-(2-(6-(3-Aminopiperidine-1-carbonyl)-3-methylpyrazolo[1,5-a]pyridin-2-yl)-1-(cyclopropylmethyl)-1H-indol-7-yl)azetidin-1-yl)-2-methoxyethan-1-one]
50 | COc1cc(C(=O)N2C[C@H](N)C[C@@H](F)C2)cn2nc(-c3cc4cccc(OC[C@H]5CCC(=O)N5)c4n3CC3CC3)c(C)c12 [Example 550, (R)-5-(((2-(6-((3R,5R)-3-amino-5-fluoropiperidine-1-carbonyl)-4-methoxy-3-methylpyrazolo[1,5-a]pyridin-2-yl)-1-(cyclopropylmethyl)-1H-indol-7-yl)oxy)methyl)pyrrolidin-2-one]
30 | COc1cc(C(=O)N2CCC[C@@H](N)C2)cn2nc(-c3cc4cccc(OCCn5cncn5)c4n3CC3CC3)c(C)c12 [Example 555, (R)-(2-(7-(2-(1H-1,2,4-Triazol-1-yl)ethoxy)-1-(cyclopropylmethyl)-1H-indol-2-yl)-4-methoxy-3-methylpyrazolo[1,5-a]pyridin-6-yl)(3-aminopiperidin-1-yl)methanone]
20 | COc1cc(C(=O)N2C[C@H](N)C[C@@H](F)C2)cn2nc(-c3cc4cccc(OCCn5cncn5)c4n3CC3CC3)c(C)c12 [Example 556, (2-(7-(2-(1H-1,2,4-Triazol-1-yl)ethoxy)-1-(cyclopropylmethyl)-1H-indol-2-yl)-4-methoxy-3-methylpyrazolo[1,5-a]pyridin-6-yl)((3R,5R)-3-amino-5-fluoropiperidin-1-yl)methanone]
10 | COc1cc(C(=O)N2C[C@H](N)C[C@@H](F)C2)cn2nc(-c3cc4cccc(OCCn5cc(N)cn5)c4n3CC3CC3)c(C)c12 [Example 557, (2-(7-(2-(4-Amino-1H-pyrazol-1-yl)ethoxy)-1-(cyclopropylmethyl)-1H-indol-2-yl)-4-methoxy-3-methylpyrazolo[1,5-a]pyridin-6-yl)((3R,5R)-3-amino-5-fluoropiperidin-1-yl)methanone]
100 | COc1cc(C(=O)N2CCC[C@@H](N)C2)cn2nc(-c3cc4cccc(OCCn5cc(N)cn5)c4n3CC3CC3)c(C)c12 [Example 558, (R)-(2-(7-(2-(4-Amino-1H-pyrazol-1-yl)ethoxy)-1-(cyclopropylmethyl)-1H-indol-2-yl)-4-methoxy-3-methylpyrazolo[1,5-a]pyridin-6-yl)(3-aminopiperidin-1-yl)methanone]
80 | COc1cc(C(=O)N2CCC[C@@H](N)C2)cn2nc(-c3cc4cccc(OC[C@@H]5CCC(=O)N5)c4n3CC3CC3)c(C)c12 [Example 559, (S)-5-(((2-(6-((R)-3-Aminopiperidine-1-carbonyl)-4-methoxy-3-methylpyrazolo[1,5-a]pyridin-2-yl)-1-(cyclopropylmethyl)-1H-indol-7-yl)oxy)methyl)pyrrolidin-2-one]
160 | COc1cc(C(=O)N2C[C@H](N)C[C@@H](F)C2)cn2nc(-c3cc4cccc(OC[C@@H]5CCC(=O)N5)c4n3CC3CC3)c(C)c12 [Example 560, (S)-5-(((2-(6-((3R,5R)-3-Amino-5-fluoropiperidine-1-carbonyl)-4-methoxy-3-methylpyrazolo[1,5-a]pyridin-2-yl)-1-(cyclopropylmethyl)-1H-indol-7-yl)oxy)methyl)pyrrolidin-2-one]
640 | COc1cc(C(=O)N2CCC[C@@H](N)C2)cn2nc(-c3cc4cccc(OC[C@H]5CCC(=O)N5)c4n3CC3CC3)c(C)c12 [Example 561, (R)-5-(((2-(6-((R)-3-Aminopiperidine-1-carbonyl)-4-methoxy-3-methylpyrazolo[1,5-a]pyridin-2-yl)-1-(cyclopropylmethyl)-1H-indol-7-yl)oxy)methyl)pyrrolidin-2-one]
60 | Cc1c(-c2cc3cccc(OC[C@@H]4CCC(=O)N4)c3n2CC2CC2)nn2cc(C(=O)N3C[C@H](N)C[C@@H](F)C3)cc(F)c12 [Example 568, (S)-5-(((2-(6-((3R,5R)-3-Amino-5-fluoropiperidine-1-carbonyl)-4-fluoro-3-methylpyrazolo[1,5-a]pyridin-2-yl)-1-(cyclopropylmethyl)-1H-indol-7-yl)oxy)methyl)pyrrolidin-2-one]
